Test systems include M14 melanoma; NCI-H23 lung; NCI-H522 lung; OVCAR-8 ovarian; RPMI-8226 leukemia; SF-295 CNS; SK-OV-3 ovarian; SN12C renal; UACC-257 melanoma; SK-MEL-2 melanoma.
Common to all, as to experiment: inhibition of tumour cell growth, NCI panel, 48 h

Structures are written as SMILES.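 In this assay, cells in 96-well plates receive the compound at five concentrations for 48 hours. Endpoints are linearly interpolated between the surrounding concentrations. The concentration for 50% growth inhibition is given as GI50. Definition used: TGI = concentration required for complete inhibition of growth.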

For `CCOc1cc[n+](C(=C=[N-])C#N)cc1`, the TGI with M14 melanoma, with NCI-H23 lung, in the experiment on NCI-H522 lung, in the experiment with OVCAR-8 ovarian, in the experiment with RPMI-8226 leukemia and in the experiment on SF-295 CNS was greater than 100 µM each time. Further, the TGI in the experiment with SK-OV-3 ovarian, in the experiment on SN12C renal and in the experiment on UACC-257 melanoma was greater than 100 µM each time.

In the case of `C/C(=N\NS(=O)(=O)c1ccccc1)c1ccc[n+]([O-])n1`, the TGI was greater than 100 µM in the experiment with M14 melanoma; greater than 100 µM with NCI-H23 lung; 79 µM with NCI-H522 lung; greater than 100 µM with OVCAR-8 ovarian; greater than 100 µM with RPMI-8226 leukemia; greater than 100 µM in the experiment on SF-295 CNS. The TGI in the experiment with SK-OV-3 ovarian, in the experiment with SN12C renal and with UACC-257 melanoma was greater than 100 µM each time.

With `CCOc1ccccc1NC(=O)C(=O)c1c(O)c2ccc(O)cc2oc1=O`, the TGI in the experiment on M14 melanoma, in the experiment with NCI-H23 lung, in the experiment with NCI-H522 lung, with OVCAR-8 ovarian, in the experiment on SF-295 CNS and with SK-MEL-2 melanoma was greater than 100 µM each time. For the same molecule, the TGI in the experiment with SK-OV-3 ovarian, in the experiment on SN12C renal and in the experiment on UACC-257 melanoma was greater than 100 µM throughout.

As for `C=C1CC(CC(=O)C(C)CC2CC(=C)C(=O)O2)OC1=O` (configuration not stated), the TGI with M14 melanoma is 30 µM; in the experiment with NCI-H23 lung it was 35.8 µM; in the experiment with OVCAR-8 ovarian, greater than 100 µM; in the experiment with SF-295 CNS it was greater than 100 µM; in the experiment with SK-MEL-2 melanoma, 25.3 µM; with SK-OV-3 ovarian, greater than 100 µM. Further, the values for the TGI in the experiment on SN12C renal and in the experiment with UACC-257 melanoma were 34.1 µM and 30.7 µM, respectively.

On to `Cc1ccc(SSCCCCS(=O)O)cc1`, for which the TGI with M14 melanoma was determined as 32.6 µM; in the experiment on NCI-H23 lung, 55.4 µM; in the experiment on NCI-H522 lung, 27.6 µM; with SF-295 CNS, 96.4 µM; in the experiment on SK-MEL-2 melanoma it was 68.5 µM; with SK-OV-3 ovarian, 71 µM. Further, the values for the TGI in the experiment with SN12C renal and in the experiment with UACC-257 melanoma were 40.4 µM and 53.3 µM, respectively.

Take `C=C1C(OCCO)OC2O[C@]3(C)CCC4[C@H](C)CCC1C24OO3` (some centres not stated): the GI50 was 78.4 µM with M14 melanoma; 7.46 µM in the experiment on NCI-H23 lung; 4.93 µM in the experiment with NCI-H522 lung; 2.16 µM in the experiment on OVCAR-8 ovarian; 0.591 µM with RPMI-8226 leukemia; greater than 100 µM in the experiment on SF-295 CNS. Further, the GI50 with SK-MEL-2 melanoma was 71.1 µM; with SK-OV-3 ovarian, greater than 100 µM; with UACC-257 melanoma, greater than 100 µM. Further, the TGI is greater than 100 µM in the experiment with M14 melanoma; 53.6 µM with NCI-H23 lung; 19.2 µM in the experiment with NCI-H522 lung; 12.5 µM in the experiment with OVCAR-8 ovarian; 16.5 µM in the experiment on RPMI-8226 leukemia; greater than 100 µM with SF-295 CNS. Moreover, the TGI in the experiment with SK-MEL-2 melanoma, in the experiment on SK-OV-3 ovarian and in the experiment with UACC-257 melanoma was greater than 100 µM throughout.

Consider `Cc1c(C(=O)Nc2ccc(Cl)cc2)nc(N)nc1-c1cccc(Cl)c1`, for which the TGI with M14 melanoma, with NCI-H23 lung, in the experiment with OVCAR-8 ovarian, in the experiment on SF-295 CNS, in the experiment on SK-OV-3 ovarian and with SN12C renal was greater than 100 µM each time. The same molecule returned a TGI with UACC-257 melanoma greater than 100 µM.

Take `NNC(=O)N/N=C1/C(=O)N(c2ccc(Cl)c(Cl)c2)C(=O)C(=O)C1c1nc2ccccc2o1` (configuration not stated): the TGI in the experiment on M14 melanoma, with NCI-H23 lung, in the experiment with NCI-H522 lung, with OVCAR-8 ovarian, with SF-295 CNS and in the experiment on SK-MEL-2 melanoma was greater than 100 µM throughout. Further, the TGI with SK-OV-3 ovarian, in the experiment on SN12C renal and in the experiment on UACC-257 melanoma was greater than 100 µM in each case.

With `CCN(CC)c1ccc(N=C2C=CC(=C(C#N)C#N)c3ccccc32)c(C)c1`, the TGI in the experiment with M14 melanoma is 3.6 µM; in the experiment on NCI-H23 lung, 3.33 µM; in the experiment with OVCAR-8 ovarian, 7.28 µM; in the experiment with RPMI-8226 leukemia it was 15.2 µM; with SF-295 CNS, 5.66 µM; in the experiment on SK-MEL-2 melanoma, 5.48 µM. Also, the figures for the TGI with SK-OV-3 ovarian, in the experiment with SN12C renal and in the experiment with UACC-257 melanoma were 24 µM, 7.86 µM and 5.78 µM, respectively.

With `CCN1C(=O)N(CC)C2C1NN=c1s/c(=C\c3cnc(C)n3C)c(=O)n12` (configuration not stated), the GI50 in the experiment on NCI-H23 lung is 3.17 µM; with NCI-H522 lung, 1.33 µM; with OVCAR-8 ovarian, 3.41 µM; in the experiment with RPMI-8226 leukemia it was 3.47 µM; with SF-295 CNS, 1.21 µM; in the experiment with SK-MEL-2 melanoma, 1.85 µM. The figures for the GI50 with SK-OV-3 ovarian, with SN12C renal and with UACC-257 melanoma were 2.74 µM, 4.64 µM and 4.69 µM, respectively. In addition, the TGI in the experiment with NCI-H23 lung is greater than 100 µM; in the experiment on NCI-H522 lung it was 4.34 µM; in the experiment on OVCAR-8 ovarian, greater than 100 µM; in the experiment with RPMI-8226 leukemia, greater than 100 µM; in the experiment with SF-295 CNS, greater than 100 µM; with SK-MEL-2 melanoma, 11.3 µM. Further, the TGI with SK-OV-3 ovarian, with SN12C renal and with UACC-257 melanoma was greater than 100 µM throughout.

For `CC(=O)N1CCN(C=S)CC1`, the TGI in the experiment with M14 melanoma, with NCI-H23 lung, in the experiment on NCI-H522 lung, in the experiment on OVCAR-8 ovarian, with RPMI-8226 leukemia and in the experiment on SF-295 CNS was greater than 100 µM throughout. Moreover, the TGI in the experiment with SK-OV-3 ovarian, with SN12C renal and in the experiment on UACC-257 melanoma was greater than 100 µM in each case.

Consider `C(=NCCN=Cc1cccc2ccccc12)c1cccc2ccccc12`, for which the TGI in the experiment with NCI-H23 lung, in the experiment with NCI-H522 lung, with OVCAR-8 ovarian, in the experiment on RPMI-8226 leukemia, with SF-295 CNS and in the experiment on SK-MEL-2 melanoma was greater than 100 µM each time. The TGI with SK-OV-3 ovarian, with SN12C renal and in the experiment with UACC-257 melanoma was greater than 100 µM in each case.

For the molecule `COc1ccc2c(c1)NC(=O)CN2c1nc(C)nc2ccccc12`, the GI50 with M14 melanoma was 0.000336 µM; in the experiment with NCI-H23 lung, 0.000458 µM; in the experiment on OVCAR-8 ovarian, 0.000524 µM; in the experiment on RPMI-8226 leukemia, 0.000603 µM; in the experiment with SF-295 CNS it was 0.000318 µM; in the experiment with SK-OV-3 ovarian, 0.000409 µM. The GI50 in the experiment with SN12C renal is 0.00101 µM. Also, the TGI in the experiment with M14 melanoma was greater than 100 µM; in the experiment on NCI-H23 lung it was greater than 100 µM; in the experiment on OVCAR-8 ovarian it was greater than 100 µM; with RPMI-8226 leukemia, greater than 100 µM; in the experiment on SK-MEL-2 melanoma, greater than 100 µM; in the experiment on SK-OV-3 ovarian, 7.19 µM. The molecule further returned a TGI in the experiment with SN12C renal greater than 100 µM.

Turning to `CC1CC2(C)CC(=O)C1C1C(=O)N(CCN3CCOCC3)C(=O)C12` (configuration not stated), the GI50 in the experiment on M14 melanoma, in the experiment with NCI-H23 lung, in the experiment on NCI-H522 lung, with OVCAR-8 ovarian, with SF-295 CNS and in the experiment on SK-MEL-2 melanoma was greater than 100 µM throughout. In addition, the GI50 in the experiment on SK-OV-3 ovarian, in the experiment with SN12C renal and with UACC-257 melanoma was greater than 100 µM in each case. The TGI with M14 melanoma, in the experiment with NCI-H23 lung, in the experiment with NCI-H522 lung, in the experiment on OVCAR-8 ovarian, in the experiment with SF-295 CNS and in the experiment on SK-MEL-2 melanoma was greater than 100 µM throughout. In addition, the TGI in the experiment with SK-OV-3 ovarian, in the experiment on SN12C renal and in the experiment with UACC-257 melanoma was greater than 100 µM each time.

Turning to `CCCCCC/C(CC(=O)CCC(=O)NCCc1ccccc1)=N\NC(=O)c1ccc2ccccc2c1O`, the TGI is greater than 100 µM with M14 melanoma; greater than 100 µM in the experiment on NCI-H23 lung; greater than 100 µM in the experiment on OVCAR-8 ovarian; greater than 100 µM with RPMI-8226 leukemia; greater than 100 µM in the experiment on SF-295 CNS; 53.7 µM in the experiment with SK-MEL-2 melanoma. Also, the TGI with SN12C renal and in the experiment on UACC-257 melanoma was greater than 100 µM in each case.

Consider `CC(C)CC1NC(=O)C(C(C)C)NC(=O)CC(C)COC(=O)C(CC(C)C)N(C)C(=O)C(C(C)C)NC(=O)C(C(C)C)OC1=O` (configuration not stated), for which the TGI in the experiment with M14 melanoma, with NCI-H23 lung, in the experiment on NCI-H522 lung, with OVCAR-8 ovarian, in the experiment on SF-295 CNS and in the experiment with SK-MEL-2 melanoma was greater than 50 µM throughout. The TGI with SK-OV-3 ovarian, in the experiment with SN12C renal and with UACC-257 melanoma was greater than 50 µM throughout.

As for `O=C(OCc1ccccc1)c1ccccc1-c1c2ccc(=O)cc-2oc2cc(OCc3ccccc3)ccc12`, the TGI in the experiment with M14 melanoma was determined as 44.7 µM; with NCI-H23 lung it was 49.6 µM; with OVCAR-8 ovarian, 74 µM; with RPMI-8226 leukemia it was 57.7 µM; with SF-295 CNS, 80.3 µM; in the experiment on SK-MEL-2 melanoma it was 46.7 µM. Besides, the values for the TGI with SN12C renal and in the experiment on UACC-257 melanoma were 74.4 µM and 67 µM, respectively.

With `OCC(O)C(OC1OC(CO)C(O)C(O)C1O)c1nn(-c2ccc(Cl)cc2)c2nc3cc(Cl)ccc3nc12` (configuration not stated), the TGI in the experiment on M14 melanoma, in the experiment with NCI-H23 lung, with NCI-H522 lung, in the experiment on OVCAR-8 ovarian, in the experiment on RPMI-8226 leukemia and with SF-295 CNS was greater than 100 µM throughout. For the same molecule, the TGI in the experiment on SK-OV-3 ovarian, in the experiment with SN12C renal and with UACC-257 melanoma was greater than 100 µM throughout.

With `CC(=O)CC(=O)ON(C)C(=O)Cc1ccccc1`, the TGI in the experiment with M14 melanoma, in the experiment on NCI-H23 lung, in the experiment on NCI-H522 lung, with OVCAR-8 ovarian, in the experiment on RPMI-8226 leukemia and in the experiment with SF-295 CNS was greater than 100 µM throughout. The TGI in the experiment on SK-OV-3 ovarian, in the experiment with SN12C renal and in the experiment with UACC-257 melanoma was greater than 100 µM each time.

(Values after PubChem BioAssay (NCI).)
